Measurements from patent publication US20140057895A1, “INDAZOLE- AND PYRROLOPYRIDINE-DERIVATIVE AND PHARMACEUTICAL USE THEREOF” (priority 2011, published 2014).

How the values were obtained:
human 5-HT4b receptor = biological target: T1, human 5-HT4b receptor (Homo sapiens, UniProt Q13639); assay: Test Example 2: Serotonin 4 (5-HT4) receptor agonist activity assay, cAMP HTRF in CHO cells (Table 97); assay type: cell-based; settings: cAMP in CHO cells expressing human 5-HT4b receptor, mean value; for Emax: 0.25 h, intrinsic activity, maximal activity of 5-HT defined as 100%, read-out: IA (%); for EC50: concentration showing 50% of IA
T1 construct: expressed in transfected cells; host or cells: CHO cells (G418 selection)
T1 sequence (Q13639 whole entry): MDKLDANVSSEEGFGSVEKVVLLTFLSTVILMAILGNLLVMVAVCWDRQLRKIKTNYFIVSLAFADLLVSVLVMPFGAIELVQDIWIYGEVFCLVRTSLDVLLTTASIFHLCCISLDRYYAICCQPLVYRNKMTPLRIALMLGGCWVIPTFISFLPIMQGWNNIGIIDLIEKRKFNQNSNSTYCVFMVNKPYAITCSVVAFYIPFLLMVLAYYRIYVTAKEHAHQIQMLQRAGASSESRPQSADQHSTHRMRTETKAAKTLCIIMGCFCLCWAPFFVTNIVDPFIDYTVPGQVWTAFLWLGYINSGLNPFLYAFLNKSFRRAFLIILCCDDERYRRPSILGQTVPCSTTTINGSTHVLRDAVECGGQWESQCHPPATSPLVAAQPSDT
Description: The cAMP measurement test used herein was carried out by using CISBIO HTRF (trademark) cAMP Hirange kit according to the manufacturer's instructions attached therewith.
CHO cells expressing human 5-HT4b receptor were incubated in Medium 1 [DMEM/1% NEAA, 1% penicillin/streptomycin (P/S), 0.2 mg/mL GENETICIN (G418), 10% FBS] at 37° C. under 5% CO2 condition. Then, the cells were put into Medium 2 (DMEM/10000 cut FBS, G-418, P/S, NEAA) for 1 to 2 hours, and collected by treating with trypsin containing EDTA. The collected cells were suspended in Assay Buffer 1 [100 mM Hanks/HEPES buffer (pH 7.4)], the suspended cells were mixed with the testing compound on 384-well plates, and the cells were incubated at 31° C. for 15 minutes. To the cells were added cAMP-cryptate solution and cAMP-d2 solution, and they were incubated at room temperature for 1 hour. Then, time-resolved fluorescence was measured by En Vision (excitation wavelength: 330 nm, fluorescence wavelength: 620/665 nm). An intrinsic activity of the compound [IA (%)] and a concentration showing 50% of IA [EC50 (nM)] were calculated from the obtained results. In particular, the intrinsic activity (IA) was calculated on the basis of the maximal activity of 5-HT (measured from 10^−11 M to 10^−7 M) defined as 100%.
(§1) In the following table, the compounds used in the test are shown in numbers which correspond to the Example numbers above where the preparations of the compounds are described.

[1] = biological target: T2, Human 5-HT4 receptor (5-HT4b) (Homo sapiens, UniProt Q13639); assay: Test Example 3: Human 5-HT4 receptor binding assay, membranes of CHO-K1 cells stably expressing 5-HT4b receptors (Table 99); settings: mean value of each group
T2 construct: expressed in transfected cells; membrane preparation
T2 sequence (Q13639 whole entry): as above
Outline: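 Radioligand displacement: [3H]-GR113808 (0.1 nM) bound to CHO-K1 5-HT4b membranes for 30 min at 37 °C in Hepes buffer (50 mM, pH 7.4). Specific binding is total minus that with 30 μM serotonin; filter-bound radioactivity counted, IC50 derived from percent inhibition.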

5-HT4 receptor = biological target: T3, 5-HT4 receptor (Cavia porcellus, UniProt O70528); assay: Test Example 1: Serotonin 4 (5-HT4) receptor binding assay, [3H]-GR113808, guinea pig striatum membranes (Table 96); settings: Guinea pig 5-HT4 receptor binding assay, [3H]-GR113808, striatum membranes; mean value of each group
T3 construct: striatum was isolated which was cryopreserved at −80° C. until use; from tissue; host or cells: guinea pig (Slc-Hartley) striatum membranes
T3 sequence (O70528 whole entry): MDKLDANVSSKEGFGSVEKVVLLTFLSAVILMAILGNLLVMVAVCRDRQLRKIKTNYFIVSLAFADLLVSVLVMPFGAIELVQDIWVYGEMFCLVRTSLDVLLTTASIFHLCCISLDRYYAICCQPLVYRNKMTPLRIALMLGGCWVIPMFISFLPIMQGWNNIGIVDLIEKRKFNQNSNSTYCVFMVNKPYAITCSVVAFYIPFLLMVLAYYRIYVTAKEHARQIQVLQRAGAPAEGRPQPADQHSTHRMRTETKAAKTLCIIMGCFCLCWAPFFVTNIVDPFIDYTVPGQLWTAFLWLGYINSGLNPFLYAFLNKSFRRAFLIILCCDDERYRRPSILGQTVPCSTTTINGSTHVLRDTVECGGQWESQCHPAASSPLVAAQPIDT
Description: The 5-HT4 receptor binding assay and preparations of receptor membrane preparations herein were carried out according to a method of Grossman et al. [see, British J. Pharmacol., (1993) 109, 618].
Slc-Hartley guinea pigs (body weight 300 g to 400 g) were decapitated to remove brain rapidly, and striatum was isolated which was cryopreserved at −80° C. until use. To the obtained tissues were added fifteen fold of Hepes buffer (50 mM, pH 7.4, 4° C.), and the mixture was homogenized by Teflon (trademark) homogenizer and centrifuged at 48,000×g (4° C.) for 15 minutes. To the resulting precipitate was added Hepes buffer (1 ml) to 30 mg by wet weight of tissues, and the mixture was suspended to give receptor membrane preparations.
To an assay tube were added 0.1 nM [^3H]-GR113808 {chemical name: [1-[2-(methylsulfonylamino)ethyl]-4-piperidinyl]methyl 1-methylindole-3-carboxylate}, receptor membrane preparations, and Hepes buffer (50 mM, pH 7.4, 4° C., 1 ml) containing test compounds or 30 μM serotonin; and the mixture was incubated at 37° C. for 30 minutes. On quenching the reaction, the mixture was rapidly filtered on whatman GF/B filter, which was presoaked in 0.1% polyethyleneimine for 1 hour, by using Brandel cell Harvester, and washed with ice-cooled 50 mM Tris-HCl (pH 7.7, 4 ml) three times. To the filter after filtration was added a liquid scintillator (Ecoscint), and then a radioactivity was determined by a liquid scintillation counter.
50% Inhibition concentrations (IC50) were determined from inhibition rates of test compounds to specific bindings which were obtained by subtracting nonspecific bindings from total binding amounts of [^3H]-GR113808.
as §1

Row | SMILES | Emax (human 5-HT4b receptor) [%] | EC50 (human 5-HT4b receptor) [nM] | IC50 [1] [nM] | IC50 (5-HT4 receptor) [nM]
1 | CC(=O)N1CCC(N2CCC(c3nc(-n4nc(C(C)C)c5cccc(F)c54)no3)CC2)CC1.Cl [Example 232, 1-(4-{3-[7-fluoro-3-(propan-2-yl)-1H-indazol-1-yl]-1,2,4-oxadiazol-5-yl}-1,4′-bipiperidin-1′-yl)ethanone hydrochloride] | 95 | 2.6 | < 20 | < 20
2 | CC(C)c1nn(-c2noc(C3CCN(C4CCN(C(=O)CO)CC4)CC3)n2)c2c(F)cccc12 [Example 242, 1-(4-{3-[7-fluoro-3-(propan-2-yl)-1H-indazol-1-yl]-1,2,4-oxadiazol-5-yl}-1,4′-bipiperidin-1′-yl)-2-hydroxyethanone] | 88 | 2.2 | < 20 | < 20
